Measured values published in PMC11345830, “Exploration of Hydrazide-Based HDAC8 PROTACs for the Treatment of Hematological Malignancies and Solid Tumors” (Journal of Medicinal Chemistry, 2024).
Like-named read-outs stand apart in the source and are kept apart here.

Key:
Jurkat cells = assay: Cell cycle analysis, Jurkat; assay type: cell-based; conditions: 48 h, control group 43.5%
Protocol: Jurkat cells (5 × 10^5) and HCT116 cells (3 × 10^5) were seeded on 6-well plates. The next day, cells were treated with indicated concentrations of compounds for 48 h. Cells were harvested after incubation, washed twice in cold PBS, centrifuged, and stained with a solution containing 20 μg/mL of Propidium iodide (PI) and 0.1% (v/v) Triton-X100 for 15 min at room temperature, followed by detection with NovoCyte Quanteon Flow Cytometer (Agilent Technologies, CA, USA).

HDAC6 = molecular target: T1, HDAC6 (Homo sapiens, UniProt Q9UBN7); assay: HDAC6 level in Jurkat cells, Western blot; assay type: cell-based; parameters: endogenous in cells; host or cells: Jurkat; conditions: 6 h
T1 sequence (Q9UBN7 1-1215): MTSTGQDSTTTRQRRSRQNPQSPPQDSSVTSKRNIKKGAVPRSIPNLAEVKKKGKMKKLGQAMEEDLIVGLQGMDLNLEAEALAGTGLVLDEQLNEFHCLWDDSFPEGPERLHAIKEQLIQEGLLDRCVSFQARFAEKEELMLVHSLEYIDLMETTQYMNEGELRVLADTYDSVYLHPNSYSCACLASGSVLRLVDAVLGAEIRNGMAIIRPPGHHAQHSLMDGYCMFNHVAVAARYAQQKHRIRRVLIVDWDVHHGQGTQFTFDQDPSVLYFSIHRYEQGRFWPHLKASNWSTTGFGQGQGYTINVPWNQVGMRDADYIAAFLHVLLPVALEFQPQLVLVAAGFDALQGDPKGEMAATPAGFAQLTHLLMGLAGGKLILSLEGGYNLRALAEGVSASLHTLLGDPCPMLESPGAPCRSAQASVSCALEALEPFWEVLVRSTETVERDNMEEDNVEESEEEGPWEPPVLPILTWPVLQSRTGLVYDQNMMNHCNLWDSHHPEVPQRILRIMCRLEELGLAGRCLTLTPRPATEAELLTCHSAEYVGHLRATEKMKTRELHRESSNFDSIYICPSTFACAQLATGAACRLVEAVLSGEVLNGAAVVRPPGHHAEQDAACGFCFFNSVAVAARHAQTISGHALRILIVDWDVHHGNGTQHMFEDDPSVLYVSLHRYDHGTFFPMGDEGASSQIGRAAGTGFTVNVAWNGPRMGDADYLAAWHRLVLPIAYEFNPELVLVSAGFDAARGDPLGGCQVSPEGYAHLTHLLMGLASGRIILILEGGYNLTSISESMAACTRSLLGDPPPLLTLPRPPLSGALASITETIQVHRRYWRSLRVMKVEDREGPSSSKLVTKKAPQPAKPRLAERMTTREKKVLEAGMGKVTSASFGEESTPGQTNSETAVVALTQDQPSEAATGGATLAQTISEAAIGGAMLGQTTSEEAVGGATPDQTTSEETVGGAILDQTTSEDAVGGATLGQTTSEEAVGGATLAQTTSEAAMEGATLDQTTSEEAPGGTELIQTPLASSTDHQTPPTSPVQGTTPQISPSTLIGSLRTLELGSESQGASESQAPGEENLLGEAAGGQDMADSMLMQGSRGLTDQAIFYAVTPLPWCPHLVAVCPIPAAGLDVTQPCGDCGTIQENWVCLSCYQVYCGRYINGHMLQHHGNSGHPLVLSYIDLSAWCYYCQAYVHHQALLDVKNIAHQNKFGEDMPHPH

STAT3 = conditions: 24 h
Text: We also explored a potential by-stander effect of HDAC8 degradation. It has been reported that HDAC8 can form a corepressor complex with STAT3 and release of the HDAC8 corepressor complex can recruit p300, Sp3, and other factors that activate gene transcription in colon cancer HCT116 cells.[20]

IKZF3 = molecular target: T2, IKZF3 (Homo sapiens, UniProt Q9UKT9); assay: IKZF3 level in Jurkat cells, Western blot; assay type: cell-based; conditions: 6 h
T2 construct: endogenous in cells; host or cells: Jurkat

HDAC7 = molecular target: T3, HDAC7 (Homo sapiens, UniProt Q8WUI4); assay: HDAC7 level in Jurkat cells, Western blot; assay type: cell-based; conditions: 6 h
T3 construct: endogenous in cells; host or cells: Jurkat
T3 sequence (Q8WUI4 1-952): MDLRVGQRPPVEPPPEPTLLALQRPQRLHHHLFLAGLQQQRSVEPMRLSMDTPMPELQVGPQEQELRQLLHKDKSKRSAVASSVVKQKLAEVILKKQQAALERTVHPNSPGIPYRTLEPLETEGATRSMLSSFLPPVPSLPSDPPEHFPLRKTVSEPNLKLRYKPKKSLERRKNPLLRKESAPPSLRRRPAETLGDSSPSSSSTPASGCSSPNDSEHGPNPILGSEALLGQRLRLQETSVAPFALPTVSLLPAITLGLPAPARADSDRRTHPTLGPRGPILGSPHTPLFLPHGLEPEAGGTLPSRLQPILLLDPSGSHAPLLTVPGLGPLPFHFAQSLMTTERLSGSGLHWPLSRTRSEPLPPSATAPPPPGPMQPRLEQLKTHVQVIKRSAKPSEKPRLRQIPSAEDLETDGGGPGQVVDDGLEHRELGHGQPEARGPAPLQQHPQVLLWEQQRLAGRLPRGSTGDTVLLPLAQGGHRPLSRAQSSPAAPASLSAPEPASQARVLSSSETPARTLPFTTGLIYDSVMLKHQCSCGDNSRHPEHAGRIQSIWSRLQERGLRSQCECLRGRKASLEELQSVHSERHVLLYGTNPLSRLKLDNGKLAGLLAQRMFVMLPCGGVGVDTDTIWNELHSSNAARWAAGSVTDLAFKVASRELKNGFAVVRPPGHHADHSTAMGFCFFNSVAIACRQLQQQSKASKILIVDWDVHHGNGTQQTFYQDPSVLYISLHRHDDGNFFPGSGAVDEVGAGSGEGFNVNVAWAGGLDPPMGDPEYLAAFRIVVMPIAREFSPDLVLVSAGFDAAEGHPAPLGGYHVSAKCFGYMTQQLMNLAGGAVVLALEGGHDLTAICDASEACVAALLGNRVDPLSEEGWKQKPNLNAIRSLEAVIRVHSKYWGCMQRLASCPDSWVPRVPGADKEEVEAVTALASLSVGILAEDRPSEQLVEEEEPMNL

T2 sequence (Q9UKT9 whole entry): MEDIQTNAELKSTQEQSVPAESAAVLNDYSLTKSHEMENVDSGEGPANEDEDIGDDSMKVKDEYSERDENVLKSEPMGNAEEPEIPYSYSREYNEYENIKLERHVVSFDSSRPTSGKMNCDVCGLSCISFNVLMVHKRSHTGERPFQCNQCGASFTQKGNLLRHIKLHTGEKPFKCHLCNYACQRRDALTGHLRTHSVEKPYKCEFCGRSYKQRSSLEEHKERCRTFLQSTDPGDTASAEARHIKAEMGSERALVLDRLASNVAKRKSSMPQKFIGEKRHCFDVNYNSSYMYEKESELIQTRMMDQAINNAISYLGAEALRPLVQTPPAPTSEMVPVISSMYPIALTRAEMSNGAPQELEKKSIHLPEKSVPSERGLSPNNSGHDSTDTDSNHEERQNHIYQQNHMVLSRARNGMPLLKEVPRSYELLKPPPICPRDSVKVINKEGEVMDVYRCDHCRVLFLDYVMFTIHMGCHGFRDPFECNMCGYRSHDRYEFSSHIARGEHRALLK

SMILES: CCCCCCNNC(=O)c1ccc(CNC(=O)CN2CCC(c3ccc(NC4CCC(=O)NC4=O)cc3)CC2)cc1 (stereo not drawn) [Z16, 2-(4-(4-((2,6-Dioxopiperidin-3-yl)amino)phenyl)piperidin-1-yl)-N-(4-(2-hexylhydrazine-1-carbonyl)benzyl)acetamide]
- proportion of cells at G0/G1 phase (Jurkat cells; 0.13 μM): 48.4%
- proportion of cells at G0/G1 phase (Jurkat cells; 0.37 μM): 52.2%
- proportion of cells at G0/G1 phase (Jurkat cells; 1.1 μM): 61%
- proportion of cells at G0/G1 phase (Jurkat cells; 3.3 μM): 68.2%
- HDAC6 degradation (in words) (HDAC6): no obvious
- STAT3 degradation (in words) (STAT3; HCT116 cells): did not induce STAT3 degradation
- STAT3 degradation (in words) (STAT3; Jurkat cells): did not induce STAT3 degradation
- intracellular level of IKZF3 (in words) (IKZF3): did not significantly affect
- HDAC7 degradation (in words) (HDAC7): no obvious
